Assay results taken from ChEMBL document CHEMBL2046338, “Synthesis and antimalarial activity of calothrixins A and B, and their N-alkyl derivatives” (Bioorg Med Chem Lett, 2012).

Test system: Plasmodium falciparum
Assay: Antimalarial activity against chloroquine sensitive Plasmodium falciparum FCR-3
Format: functional
Conditions: FCR-3/Gambia

Question: How did the IC50 turn out when `O=C1c2c[n+]([O-])c3ccccc3c2C(=O)c2c1c1ccccc1n2CCO` was run?
Answer: Its IC50 is 0.25 µM.

Question: For `O=C1c2cnc3ccccc3c2C(=O)c2c1c1ccccc1n2CCO`, which IC50 is on record?
Answer: The IC50 was 0.33 µM.

Question: With `CC(C)n1c2c(c3ccccc31)C(=O)c1cnc3ccccc3c1C2=O` as the compound, how does the IC50 read?
Answer: The IC50 was 6.4 µM.

Question: Which IC50 does the source give for `Cn1c2c(c3ccccc31)C(=O)c1c[n+]([O-])c3ccccc3c1C2=O` here?
Answer: The IC50 was 0.38 µM.

Question: With `O=C1c2[nH]c3ccccc3c2C(=O)c2cnc3ccccc3c21` [CALOTHRIXIN B] as the compound, how does the IC50 read?
Answer: The IC50 was 0.12 µM.

Question: For `CC(C)n1c2c(c3ccccc31)C(=O)c1c[n+]([O-])c3ccccc3c1C2=O`, which IC50 is on record?
Answer: Its IC50 is 0.32 µM.

Question: With `CCn1c2c(c3ccccc31)C(=O)c1cnc3ccccc3c1C2=O` as the compound, how does the IC50 read?
Answer: The IC50 was 2.2 µM.

Question: With `O=C1c2c[n+]([O-])c3ccccc3c2C(=O)c2[nH]c3ccccc3c21` [CALOTHRIXIN A] as the compound, how does the IC50 read?
Answer: The IC50 was 0.185 µM.

Question: Which IC50 does the source give for `CCn1c2c(c3ccccc31)C(=O)c1c[n+]([O-])c3ccccc3c1C2=O` here?
Answer: Its IC50 is 0.38 µM.

Question: `Cn1c2c(c3ccccc31)C(=O)c1cnc3ccccc3c1C2=O` was tested. Which IC50 did it give?
Answer: The IC50 was 0.49 µM.
